The test system of series [1] is HEK293 cells. The series is described as follows: Cytotoxicity, MTT growth inhibition. The series is classed as cell-based, human. The settings on record: 500 μM. The procedure:
In another aspect, the toxicity was evaluated by the growth inhibition of 5f against human embryonic kidney 293 (HEK293) cells. It was shown that 5f was nontoxic to HEK293 cells even at high concentration of 500 μM (Supplementary B of Fig. S2).
HEK293 cells were purchased from Centre of Cells Resource, Shanghai Institute of Life Science, Chinese Academy of Sciences, P. R. China. HEK293 cells in the exponential phase were plated on a 96-well cell culture plate with 5 × 10^3 cells in each well supplemented with 100 U/ml of penicillin and 100 μg/ml of streptomycin, which were cultured in a humidified atmosphere of 95% and 5% CO2 at 37 °C for 24 h. The cells were adherent. […] 6 wells were set for each group. The wells without addition of the drug were set as controls. The cells in each of the wells were cultured for another 24 h. Then 15 μl of MTT (5 mg/mL) was added to each well. The plates were then incubated at 37 °C for 4 hours, then the supernatants were discarded. 150 μL of DMSO solutions were added to each of the wells and the solutions were mixed thoroughly. Then the plates were incubated at 37 °C for another 10 minutes. Each sample was mixed again and the resulting formazan was measured by its absorbance at 570 nm using a BIO-RAD680 plate reader (Thermo, USA). The experiments were repeated at least 3 times and compared with the control experiment. […]

Series [2] concerns oxidative stress (ROS, MDA, ORAC). The experiment in a line: ROS generation, MDA and ORAC level in chick embryos. The series is classed as in vivo. The note with it: glucose-treated chick embryos. The source says: It has been reported that hyperglycemia increased the production of ROS. Blocking the generation of ROS could at least partially prevent the possible damage of hyperglycemia. No doubt, oxidative stress will be induced in glucose treated embryos. This conclusion was confirmed by the determination of ROS and malondialdehyde (MDA) levels, and the anti-oxidation ability in chick embryos on EDD 5. […] However, treatment of 5f decreased both levels of ROS and MDA in a dose-dependent manner.
In addition, the ORAC level is indicative of the anti-oxidative capacity.
ROS generation ratios in the eyes of EDD 5 chick embryos were detected with 5 μmol 2′,7′-dichlorofluorescein-diacetate (DCFH-DA, Sigma-Aldrich). The peroxide content was determined by measuring thiobarbituric-acid-reactive substances (TBARS) with a commercial MDA kit (Nanjing Jiancheng Institute of Biotechnology, Nanjing, China). The procedures for the ORAC assay were modified from the previously described method. The automated ORAC assay was carried out on a decay of the fluorescein signal and determined with an excitation/emission filter pair of 485/527 nm in a GENios Lueifcrase microplate reader (TECAN) at 37 °C. Final results were calculated on the basis of the difference in the area under the fluorescein decay curve between the blank and each sample.

Series [3] relates to chick embryo. The experiment in a line: Chick embryo model of hyperglycemia: mortality, NTD rate, body weight. The settings on record: glucose 0.4 mmol/egg, EDD 5, dose 1 μM. It is filed as in vivo. The procedure: In order to evaluate further the potential of 5f as an agent to treat diseases caused by high glucose inside the system, a chick embryo model of treatment with high glucose was set up.
Fertilized leghorn eggs were purchased from the Avian Farm of the South China Agriculture University (Guangzhou, China). Before the injection of glucose (Sigma–Aldrich, MO, USA), the eggs were incubated in a humidified incubator (Grumbach, Germany) at 37 °C with 60% humidity until the embryos reached the desired stage. […] Glucose was dissolved in 200 μL chicken saline and injected on EDD 1. Mortality, abnormality and body weight measurements were made on EDD 5. Embryos were removed from their eggs and weighed. The percent mortality was measured by counting the number of dead versus all embryos. The rate of NTD of the embryos was assessed by the number of NTD versus survival embryos.

Series [4] concerns the target T1, ALR1 (Gallus gallus, UniProt Q5ZK84).
T1 construct: Embryos on EDD 5 were homogenized with chicken saline and centrifuged; from tissue; host or cells: EDD 5 chick (leghorn) embryo homogenate supernatant
T1 sequence (Q5ZK84 1-327): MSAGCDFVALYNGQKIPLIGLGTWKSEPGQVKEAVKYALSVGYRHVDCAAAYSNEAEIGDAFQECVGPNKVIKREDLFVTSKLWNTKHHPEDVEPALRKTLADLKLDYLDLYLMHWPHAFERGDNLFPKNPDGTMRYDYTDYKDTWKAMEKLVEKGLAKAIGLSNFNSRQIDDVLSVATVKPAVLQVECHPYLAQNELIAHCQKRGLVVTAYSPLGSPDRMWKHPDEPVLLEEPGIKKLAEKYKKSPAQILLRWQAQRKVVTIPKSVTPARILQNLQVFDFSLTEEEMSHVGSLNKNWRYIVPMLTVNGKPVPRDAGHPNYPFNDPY
The experiment in a line: ALR1 activity in glucose-treated embryos (chicken ALR1 ELISA kit). It is filed as in vivo. The note with it: glucose-treated chick embryos, EDD 5, compared with the model group. As to the method:
Embryos on EDD 5 were homogenized with chicken saline and centrifuged (4 °C, 10000 rpm, 10 min). The supernatant was used for measuring ALR1 activity in the sample. A chicken ALR1 ELISA kit (Jianglai Biotechnology, China) were used for detection. The concentration of ALR1 in the samples was then determined by comparing the OD of the samples to the standard curve.
For orientation: ELISA stands for enzyme-linked immunosorbent assay.

Series [5] has as its system AR. On the set-up: method as in PMID 22316239. The settings on record: read-out: IC50 (AR inhibition); cited from earlier work.

Each structure is given as a SMILES string.

As to `CC(/C=C1\SC(=S)N(CC(=O)O)C1=O)=C\c1ccccc1` [Epalrestat, epalrestat, reference compound], the “inhibition rate (growth inhibition)” value in series [1] is reported as 36.4%. Moreover, the “ORAC level (anti-oxidative capacity) of embryo” value in series [2] (EDD 5) is listed as “no effect”. Also, in series [2] (EDD 5, dose 1 μM), the “MDA level in embryo” value is recorded as “no effect” and the “ROS level in embryo” value is “no effect”. Besides, in series [3], the Body weight is on record as 300.1 ± 3.6 mg, the “Death (/n)” value was found to be 25.0% and the “NTD (/survival)” value worked out at 26.7%. Besides, in series [4], the “ALR1 level in embryo” value is “no obvious change”.
For orientation: IC50 means the concentration that gives 50% inhibition. In the case of `O=C(O)/C=C/c1ccc(O)cc1` [p-coumaric acid], the IC50 in series [5] is 140 nM.

(Values after PMC4842970, “Bioactivity Focus of α-Cyano-4-hydroxycinnamic acid (CHCA) Leads to Effective Multifunctional Aldose Reductase Inhibitors” (Scientific Reports, 2016).)
